# Data from patent US5955464A, “4-anilinoquinazoline derivatives bearing a heteroaryl substituted at the 6-position and possessing anti-cell-proliferation properties” (Zeneca Limited, priority 1994, dated 1999).
# Key:
# [1] = system: EGF receptor tyrosine kinase; conditions: in words; Fry et al., Science, 1994, 265, 1093; cited from earlier work
# [2] = target: T1, EGF receptor tyrosine kinase (Homo sapiens, UniProt P00533); assay: in vitro assay of inhibition of the enzyme EGF receptor tyrosine kinase (Test (a)); type: biochemical; conditions: EGF receptor tyrosine kinase from A-431 cells
# T1 construct: Receptor tyrosine kinase was obtained in partially purified form from A-431 cells; endogenous in cells; host or cells: A-431 cells (human vulval carcinoma), Triton X-100-solubilised membrane fraction
# T1 sequence (P00533 25-1210): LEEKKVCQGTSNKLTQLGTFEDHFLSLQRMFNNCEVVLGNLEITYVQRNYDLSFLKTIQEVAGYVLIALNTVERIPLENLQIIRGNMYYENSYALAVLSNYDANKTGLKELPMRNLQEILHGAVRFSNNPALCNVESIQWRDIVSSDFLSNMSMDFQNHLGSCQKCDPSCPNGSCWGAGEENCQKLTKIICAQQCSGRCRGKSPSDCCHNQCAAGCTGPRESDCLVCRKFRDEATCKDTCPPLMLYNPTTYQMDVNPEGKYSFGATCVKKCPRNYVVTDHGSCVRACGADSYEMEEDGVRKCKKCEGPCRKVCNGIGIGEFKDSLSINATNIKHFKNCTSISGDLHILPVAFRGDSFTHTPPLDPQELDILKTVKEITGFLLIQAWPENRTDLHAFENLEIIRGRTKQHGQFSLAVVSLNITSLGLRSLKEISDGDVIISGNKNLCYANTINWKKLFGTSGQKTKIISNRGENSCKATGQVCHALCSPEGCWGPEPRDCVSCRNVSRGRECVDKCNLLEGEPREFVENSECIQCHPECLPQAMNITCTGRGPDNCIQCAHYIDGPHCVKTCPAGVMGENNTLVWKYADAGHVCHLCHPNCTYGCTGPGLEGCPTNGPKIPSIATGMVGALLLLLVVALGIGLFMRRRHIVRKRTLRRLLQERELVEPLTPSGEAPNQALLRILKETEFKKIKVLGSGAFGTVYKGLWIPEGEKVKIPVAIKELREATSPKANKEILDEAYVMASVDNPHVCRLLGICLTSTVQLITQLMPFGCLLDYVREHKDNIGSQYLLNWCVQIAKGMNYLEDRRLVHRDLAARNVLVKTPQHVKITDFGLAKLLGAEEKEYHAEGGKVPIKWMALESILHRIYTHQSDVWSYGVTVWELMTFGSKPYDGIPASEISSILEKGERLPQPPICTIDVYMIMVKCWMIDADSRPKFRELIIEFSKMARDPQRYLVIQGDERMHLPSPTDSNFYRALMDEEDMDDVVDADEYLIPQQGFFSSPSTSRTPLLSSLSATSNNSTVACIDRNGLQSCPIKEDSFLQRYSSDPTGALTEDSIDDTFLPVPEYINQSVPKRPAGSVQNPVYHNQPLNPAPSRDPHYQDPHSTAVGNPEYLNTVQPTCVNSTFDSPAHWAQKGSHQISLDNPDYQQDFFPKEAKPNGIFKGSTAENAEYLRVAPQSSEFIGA
# T1 sequence (P01133 971-1023 partner limits assumed): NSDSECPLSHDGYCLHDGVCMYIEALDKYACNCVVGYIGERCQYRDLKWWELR
# Procedure: (a) An in vitro assay which determines the ability of a test compound to inhibit the enzyme EGF receptor tyrosine kinase. Receptor tyrosine kinase was obtained in partially purified form from A-431 cells (derived from human vulval carcinoma) by the procedures described below which are related to those described by Carpenter et al., J. Biol. Chem., 1979, 254, 4884, Cohen et al, J. Biol. Chem., 1982, 257, 1523 and by Braun et al., J. Biol. Chem., 1984, 259, 2051.
# A-431 cells were grown to confluence using Dulbecco's modified Eagle's medium (DMEM) containing 5% fetal calf serum (FCS). The obtained cells were homogenised in a hypotonic borate/EDTA buffer at pH 10.1. The homogenate was centrifuged at 400 g for 10 minutes at 0-4° C. The supernatant was centrifuged at 25,000 g for 30 minutes at 0-4° C. […]
# The test compound/EGF mixture solution (5 μl) was added to the test enzyme solution (10 μl) and the mixture was incubated at 0-4° C. for 30 minutes. […] Radioactivity present in the filter paper was measured using a liquid scintillation counter (Sequence A). […]
# Receptor tyrosine kinase inhibition was calculated as follows: [formula]
# The extent of inhibition was then determined at a range of concentrations of test compound to give an IC50 value.
# KB cells = assay: in vitro assay of inhibition of EGF-stimulated growth of the human naso-pharyngeal cancer cell line KB (Test (b)); type: cell-based; conditions: 72 h, EGF 10 ng/ml, 3 days
# Procedure: (b) An in vitro assay which determines the ability of a test compound to inhibit the EGF-stimulated growth of the human naso-pharyngeal cancer cell line KB. KB cells were seeded into wells at a density of 1×10^4 -1.5×10^4 cells per well and grown for 24 hours in DMEM supplemented with 5% FCS (charcoal-stripped). Cell growth was determined after incubation for 3 days by the extent of metabolism of MTT tetrazolium dye to furnish a bluish colour. Cell growth was then determined in the presence of EGF (10 ng/ml) or in the presence of EGF (10 ng/ml) and a test compound at a range of concentrations. An IC50 value could then be calculated.
# liver hepatocyte growth = assay: in vivo assay in male rats of inhibition of TGFα-stimulated liver hepatocyte growth (Test (c)); conditions: Rattus norvegicus, usually oral, inhibition of BrdU uptake, approximate ED50
# Procedure: (c) An in vivo assay in a group of male rats which determines the ability of a test compound (usually administered orally as a ball-milled suspension in 0.5% polysorbate) to inhibit the stimulation of liver hepatocyte growth caused by the administration of the growth factor TGFα (400 μg/kg subcutaneously, usually dosed twice, 3 and 7 hours respectively after the administration of the test compound).
# In a control group of rats, the administration of TGFα causes on average a 5-fold stimulation of liver hepatocyte growth.
# Cell-growth in the control and test animals is determined as follows:
# On the morning of the day after the dosing of the test compound (or 0.5% polysorbate in the control group), the animals are dosed with bromodeoxyuridine (BrdU; 100 mg/kg intraperitoneally). The animals are killed four hours later and the livers are excised. […] Further tests were carried out using a range of doses of the test compounds to allow the calculation of an approximate ED50 value for the inhibition of liver hepatocyte proliferation as determined by inhibition of the uptake of BrdU.
# [3] = system: xenografts of the human vulval epidermoid carcinoma cell line A431; assay: in vivo assay in athymic nude mice of inhibition of growth of A431 xenografts (Test (d)); design: species or system athymic nude mice (human A431 xenograft); conditions: 200 mg/kg/day, once daily, usually oral
# Procedure: (d) An in-vivo assay in a group of athymic nude mice (strain ONU:Alpk) which determines the ability of a test compound (usually administered orally as a ball-milled suspension in 0.5% polysorbate) to inhibit the growth of xenografts of the human vulval epidermoid carcinoma cell line A431.
# A431 cells were maintained in culture in DMEM supplemented with 5% FCS and 2 mM glutamine. Freshly cultured cells were harvested by trypsinization and injected subcutaneously (10 million cells/0.1 ml/mouse) into both flanks of a number of donor nude mice. When sufficient tumour material was available (after approximately 9 to 14 days), fragments of tumour tissue were transplanted into the flanks of recipient nude mice (test day 0). On the eighth day after transplantation (test day 7) groups of 8 to 10 mice with similar-sized tumours were selected and dosing of the test compound was commenced. Once-daily dosing of test compound was continued for a total of 13 days (test days 7 to 19 inclusive). In some studies the dosing of the test compound was continued beyond test day 19, for example to test day 26. In each case, on the following day the animals were killed and final tumour volume was calculated from measurements of the length and width of the tumours. Results were calculated as a percentage inhibition of tumour volume relative to untreated controls.
# [4] = system: human mammary carcinoma which expresses EGF receptor tyrosine kinase; conditions: athymic nude mice; Toi et al., 1990; cited from earlier work
# [5] = system: another carcinoma which does not express EGF receptor tyrosine kinase; conditions: athymic nude mice; Toi et al., 1990; cited from earlier work
smiles,measurement,setting,value
"COc1cc2ncnc(Nc3cccc(Br)c3)c2cc1OC [4-(3-bromoanilino)-6,7-dimethoxyquinazoline]",inhibition of EGF receptor tyrosine kinase,[1],highly potent inhibitor
Cc1cccc(Nc2ncnc3ccc(-n4ccnc4)cc23)c1 [4-(3-methylanilino)-6-(1-imidazolyl)quinazoline],IC50,[2],26 nM
same,IC50,KB cells,510 nM
same,ED50,liver hepatocyte growth,< 12.5 mg/kg
same,inhibition in Test (d) (percentage inhibition of tumour volume),[3],63%
O=CN/C=C/c1cc(O)ccc1O [erbstatin],growth of transplanted human mammary carcinoma expressing EGF receptor tyrosine kinase,[4],specifically attenuates the growth
same,growth of another carcinoma not expressing EGF receptor tyrosine kinase,[5],without effect on the growth
